Reference: patent publication US11072612B2, “NLRP3 modulators” (INNATE TUMOR IMMUNITY, INC., priority 2016, dated 2021)

What was measured:
Format in all cases: cell-based
hNLRP3 = molecular target: T1, hNLRP3 (Homo sapiens, UniProt Q96P20); experiment: hNLRP3 agonist assay: IL-1β production in PMA-differentiated THP-1 cells (ELISA); settings: Table 2, 4 hours, IL-1β by ELISA
T1 construct: THP-1 cells were purchased from the American Type Culture Collection; host or cells: THP-1 cells, PMA-differentiated
Description: THP-1 cells were purchased from the American Type Culture Collection and sub-cultured according to instructions from the supplier. Prior to experiments, cells were cultured in RPMI 1640 containing 10% heat inactivated FBS, penicillin (100 units/ml) and streptomycin (100 μg/ml), and maintained in log phase prior to experimental setup. Prior to the experiment THP-1 were treated with PMA (Phorbol 12-myristate 13-acetate) (10 μg/ml) for 24 hours. The day of the experiment the media was removed and attaching cells were treated with trypsin for 2 minutes, cells were then collected, washed with PBS (phosphate buffer saline), spin down, resuspended in 2% heat inactivated FBS with RPMI at a concentration of 1×10^6 cells/ml, and 100 μl was plated in a 96 well plate. Cells were incubated with compounds for 4 hours. Cell free supernatant was collected and the production of IL-1β was evaluated by ELISA. Compounds were dissolved in dimethyl sulfoxide (DMSO) and added to the culture medium to achieve desired concentration (e.g. 100, 30, 10, 3, 1, 0.3 or 0.1 μM). A vehicle only control was run concurrently with each experiment. Final DMSO concentration was 1%.

TLR7 = molecular target: T2, TLR7 (Homo sapiens, UniProt Q9NYK1); experiment: TLR7 EC50 assay; settings: Table 2
T2 sequence (Q9NYK1 27-1049): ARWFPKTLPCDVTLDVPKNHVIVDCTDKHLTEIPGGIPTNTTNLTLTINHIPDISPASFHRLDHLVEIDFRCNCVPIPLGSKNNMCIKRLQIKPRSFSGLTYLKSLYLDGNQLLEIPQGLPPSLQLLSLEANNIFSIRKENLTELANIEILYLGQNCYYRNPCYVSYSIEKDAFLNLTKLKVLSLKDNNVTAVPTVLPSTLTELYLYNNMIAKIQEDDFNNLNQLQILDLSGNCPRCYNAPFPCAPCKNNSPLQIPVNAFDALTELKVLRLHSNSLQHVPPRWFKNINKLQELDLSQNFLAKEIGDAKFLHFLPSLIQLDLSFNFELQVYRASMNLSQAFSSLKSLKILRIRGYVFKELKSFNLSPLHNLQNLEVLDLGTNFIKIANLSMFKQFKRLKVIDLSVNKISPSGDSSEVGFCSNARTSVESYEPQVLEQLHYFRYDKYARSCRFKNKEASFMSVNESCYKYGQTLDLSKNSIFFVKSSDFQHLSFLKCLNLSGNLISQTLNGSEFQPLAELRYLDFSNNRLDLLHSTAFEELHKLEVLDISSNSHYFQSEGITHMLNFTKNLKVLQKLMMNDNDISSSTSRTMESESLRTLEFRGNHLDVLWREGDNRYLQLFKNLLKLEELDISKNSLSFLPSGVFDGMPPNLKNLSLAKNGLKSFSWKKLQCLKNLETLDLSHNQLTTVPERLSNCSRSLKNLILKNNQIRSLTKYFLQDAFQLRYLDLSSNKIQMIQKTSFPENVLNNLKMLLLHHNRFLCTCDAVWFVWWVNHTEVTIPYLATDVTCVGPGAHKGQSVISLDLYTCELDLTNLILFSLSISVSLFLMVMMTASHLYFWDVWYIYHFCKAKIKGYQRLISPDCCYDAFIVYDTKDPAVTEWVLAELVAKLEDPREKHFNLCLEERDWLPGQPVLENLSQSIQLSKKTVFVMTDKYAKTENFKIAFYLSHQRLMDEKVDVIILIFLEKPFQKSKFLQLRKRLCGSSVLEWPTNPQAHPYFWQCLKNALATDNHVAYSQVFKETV

TLR8 = molecular target: T3, TLR8 (Homo sapiens, UniProt Q9NR97); experiment: TLR8 EC50 assay; settings: Table 2
T3 sequence (Q9NR97 27-1041): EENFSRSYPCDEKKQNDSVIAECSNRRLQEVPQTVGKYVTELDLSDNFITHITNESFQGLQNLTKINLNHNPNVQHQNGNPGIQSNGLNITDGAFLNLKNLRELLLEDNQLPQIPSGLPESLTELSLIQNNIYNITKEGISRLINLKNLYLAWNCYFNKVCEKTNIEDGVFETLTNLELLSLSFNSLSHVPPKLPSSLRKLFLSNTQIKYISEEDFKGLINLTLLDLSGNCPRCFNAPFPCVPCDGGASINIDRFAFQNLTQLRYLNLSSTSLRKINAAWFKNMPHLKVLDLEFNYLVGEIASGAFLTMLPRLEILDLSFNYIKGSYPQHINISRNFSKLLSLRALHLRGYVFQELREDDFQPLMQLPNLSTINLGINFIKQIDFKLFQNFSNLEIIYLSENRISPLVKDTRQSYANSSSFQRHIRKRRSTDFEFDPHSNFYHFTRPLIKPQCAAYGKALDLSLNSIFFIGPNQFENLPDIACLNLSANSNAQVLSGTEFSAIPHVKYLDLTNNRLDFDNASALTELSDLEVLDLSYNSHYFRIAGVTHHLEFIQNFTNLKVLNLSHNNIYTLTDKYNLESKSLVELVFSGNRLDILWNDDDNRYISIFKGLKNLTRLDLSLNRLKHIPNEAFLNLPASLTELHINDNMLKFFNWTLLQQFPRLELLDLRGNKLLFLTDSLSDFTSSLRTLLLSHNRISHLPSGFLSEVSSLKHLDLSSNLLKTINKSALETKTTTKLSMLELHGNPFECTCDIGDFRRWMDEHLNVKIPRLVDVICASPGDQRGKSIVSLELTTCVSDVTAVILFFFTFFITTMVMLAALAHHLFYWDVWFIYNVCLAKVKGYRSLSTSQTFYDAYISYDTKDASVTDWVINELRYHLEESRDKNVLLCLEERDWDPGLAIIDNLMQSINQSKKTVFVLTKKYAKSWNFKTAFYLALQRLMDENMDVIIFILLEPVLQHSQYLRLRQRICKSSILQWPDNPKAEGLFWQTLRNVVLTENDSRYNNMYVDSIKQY

T1 sequence (Q96P20 whole entry): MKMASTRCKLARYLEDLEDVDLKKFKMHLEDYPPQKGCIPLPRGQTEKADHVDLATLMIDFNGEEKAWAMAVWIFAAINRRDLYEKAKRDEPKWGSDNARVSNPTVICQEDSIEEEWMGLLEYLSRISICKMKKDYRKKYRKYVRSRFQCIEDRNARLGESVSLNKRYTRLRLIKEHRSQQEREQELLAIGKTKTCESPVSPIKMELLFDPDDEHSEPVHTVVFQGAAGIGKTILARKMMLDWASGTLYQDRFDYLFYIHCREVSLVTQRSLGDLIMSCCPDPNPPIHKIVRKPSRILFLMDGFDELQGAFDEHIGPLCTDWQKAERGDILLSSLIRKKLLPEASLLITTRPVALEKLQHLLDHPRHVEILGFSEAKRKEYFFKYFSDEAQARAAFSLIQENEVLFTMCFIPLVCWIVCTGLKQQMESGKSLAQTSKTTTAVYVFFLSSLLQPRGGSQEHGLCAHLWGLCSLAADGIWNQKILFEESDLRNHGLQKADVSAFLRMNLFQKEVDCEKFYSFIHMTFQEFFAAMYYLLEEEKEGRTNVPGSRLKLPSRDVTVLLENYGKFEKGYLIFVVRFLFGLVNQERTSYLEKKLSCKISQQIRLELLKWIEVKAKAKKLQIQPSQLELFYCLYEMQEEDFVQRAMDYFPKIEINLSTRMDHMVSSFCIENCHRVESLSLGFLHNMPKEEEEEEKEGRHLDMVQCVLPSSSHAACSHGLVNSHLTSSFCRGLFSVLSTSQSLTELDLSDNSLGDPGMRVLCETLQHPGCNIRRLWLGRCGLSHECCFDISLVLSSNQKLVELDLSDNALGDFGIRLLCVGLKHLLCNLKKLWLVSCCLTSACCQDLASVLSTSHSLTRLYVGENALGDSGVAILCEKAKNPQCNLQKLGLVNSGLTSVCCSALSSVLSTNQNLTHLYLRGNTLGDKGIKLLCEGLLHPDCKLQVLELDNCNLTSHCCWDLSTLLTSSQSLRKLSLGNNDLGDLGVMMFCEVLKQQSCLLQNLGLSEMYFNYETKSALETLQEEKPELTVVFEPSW

| Compound | EC50 (hNLRP3) [µM] | EC50 (TLR7) [µM] | EC50 (TLR8) [µM] |
| --- | --- | --- | --- |
| Nc1nc2cc(N3CCOCC3)ccc2c2[nH]c(CCCO)nc12 [Compound 168, 3-(4-amino-7-morpholin-4-yl-1H-imidazo[4,5-c]quinolin-2-yl)propan-1-ol] | > 100 | > 100 | > 100 |
| CN(C)C(=O)CCCn1c(CCCO)nc2c(N)nc3cc(Br)ccc3c21 [Compound 169] | 1 to 20 | > 100 | > 100 |
| Nc1ccc(-c2ccc3c(c2)nc(N)c2nc(CCCO)[nH]c23)cn1 [Compound 170, 3-[4-amino-7-(6-aminopyridin-3-yl)-1H-imidazo[4,5-c]quinolin-2-yl]propan-1-ol] | > 100 | > 100 | > 100 |
| COc1ccncc1-c1ccc2c(c1)nc(N)c1nc(CCCO)[nH]c12 [Compound 171, 3-[4-amino-7-(4-methoxypyridin-3-yl)-1H-imidazo[4,5-c]quinolin-2-yl]propan-1-ol] | > 100 | > 100 | > 100 |
| Cc1ccc(-c2ccc3c(c2)nc(N)c2nc(CCCO)[nH]c23)cn1 [Compound 172, 3-[4-amino-7-(6-methylpyridin-3-yl)-1H-imidazo[4,5-c]quinolin-2-yl]propan-1-ol] | > 100 | > 100 | > 100 |
| CSc1ccc(-c2ccc3c(c2)nc(N)c2nc(CCCO)[nH]c23)cn1 [Compound 173, 3-[4-amino-7-(6-methylsulfanylpyridin-3-yl)-1H-imidazo[4,5-c]quinolin-2-yl]propan-1-ol] | > 100 | > 100 | > 100 |
| Nc1nc2cc(C3CCCCC3)ccc2c2[nH]c(CCCO)nc12 [Compound 174, 3-(4-amino-7-cyclohexyl-1H-imidazo[4,5-c]quinolin-2-yl)propan-1-ol] | 20 to 100 | > 100 | > 100 |
| COc1cncc(-c2ccc3c(c2)nc(N)c2nc(CCCO)[nH]c23)c1 [Compound 175, 3-[4-amino-7-(5-methoxypyridin-3-yl)-1H-imidazo[4,5-c]quinolin-2-yl]propan-1-ol] | > 100 | > 100 | > 100 |
| Nc1nc2cc(-c3ccc(O)nc3)ccc2c2[nH]c(CCCO)nc12 [Compound 176, 5-[4-amino-2-(3-hydroxypropyl)-1H-imidazo[4,5-c]quinolin-7-yl]pyridin-2-ol] | > 100 | > 100 | > 100 |
| CN(C)c1nc(-c2ccc3c(c2)nc(N)c2nc(CCCO)[nH]c23)cs1 [Compound 177, 3-[4-amino-7-[2-(dimethylamino)-1,3-thiazol-4-yl]-1H-imidazo[4,5-c]quinolin-2-yl]propan-1-ol] | > 100 | > 100 | > 100 |
| Nc1nc2cc(-n3cccn3)ccc2c2[nH]c(CCCO)nc12 [Compound 178, 3-(4-amino-7-pyrazol-1-yl-1H-imidazo[4,5-c]quinolin-2-yl)propan-1-ol] | ≤ 1 | > 100 | 20 to 100 |
| Nc1nc2cc(-n3ccnc3)ccc2c2[nH]c(CCCO)nc12 [Compound 179, 3-(4-amino-7-imidazol-1-yl-1H-imidazo[4,5-c]quinolin-2-yl)propan-1-ol] | > 100 | > 100 | > 100 |
| Nc1nc2cc(NC(=O)c3ccccc3)ccc2c2[nH]c(CCCO)nc12 [Compound 180, N-[4-amino-2-(3-hydroxypropyl)-1H-imidazo[4,5-c]quinolin-7-yl]benzamide] | > 100 | > 100 | > 100 |
| Cc1cnn(-c2ccc3c(c2)nc(N)c2nc(CCCO)[nH]c23)c1 [Compound 181, 3-[4-amino-7-(4-methylpyrazol-1-yl)-1H-imidazo[4,5-c]quinolin-2-yl]propan-1-ol] | 1 to 20 | > 100 | > 100 |
| Nc1nc2cc(-n3cnc4ccccc43)ccc2c2[nH]c(CCCO)nc12 [Compound 182, 3-[4-amino-7-(benzimidazol-1-yl)-1H-imidazo[4,5-c]quinolin-2-yl]propan-1-ol] | > 100 | > 100 | > 100 |
| Nc1nc2cc(N3CCCC3=O)ccc2c2[nH]c(CCCO)nc12 [Compound 183, 1-[4-amino-2-(3-hydroxypropyl)-1H-imidazo[4,5-c]quinolin-7-yl]pyrrolidin-2-one] | 20 to 100 | > 100 | > 100 |
| Nc1nc2cc(-c3nccs3)ccc2c2[nH]c(CCCO)nc12 [Compound 184, 3-[4-amino-7-(1,3-thiazol-2-yl)-1H-imidazo[4,5-c]quinolin-2-yl]propan-1-ol] | > 100 | > 100 | > 100 |
| Nc1nc2cc(-c3ccccn3)ccc2c2[nH]c(CCCO)nc12 [Compound 185, 3-(4-amino-7-pyridin-2-yl-1H-imidazo[4,5-c]quinolin-2-yl)propan-1-ol] | ≤ 1 | > 100 | > 100 |
| Nc1nc2cc(-c3ccsc3)ccc2c2[nH]c(CCCO)nc12 [Compound 186, 3-(4-amino-7-thiophen-3-yl-1H-imidazo[4,5-c]quinolin-2-yl)propan-1-ol] | ≤ 1 | > 100 | > 100 |
| Nc1nc2cc(-c3cccs3)ccc2c2[nH]c(CCCO)nc12 [Compound 187, 3-(4-amino-7-thiophen-2-yl-1H-imidazo[4,5-c]quinolin-2-yl)propan-1-ol] | ≤ 1 | > 100 | > 100 |
| Nc1nc2cc(-c3cncnc3)ccc2c2[nH]c(CCCO)nc12 [Compound 188, 3-(4-amino-7-pyrimidin-5-yl-1H-imidazo[4,5-c]quinolin-2-yl)propan-1-ol] | 20 to 100 | > 100 | > 100 |
| Nc1nc2cc(-c3cc[nH]n3)ccc2c2[nH]c(CCCO)nc12 [Compound 189, 3-[4-amino-7-(1H-pyrazol-3-yl)-1H-imidazo[4,5-c]quinolin-2-yl]propan-1-ol] | ≤ 1 | > 100 | > 100 |
